The text below walks through data of US9034857B2 (Health Research, Inc., priority 2010, dated 2015).

“Also recorded” adds a separate entry of the source.

The test system of one assay is intracellular O2- in stationary phase budding yeast cells. The experiment in a line: High throughput flow cytometry DHE screen for reduction of superoxide in stationary phase budding yeast. The assay is classed as cell-based, S. cerevisiae.
Conditions: not given
In the case of `CNc1ccc2nc3ccccc3[n+](C)c2c1.[O-][Cl+3]([O-])([O-])[O-]` [MLS001164912, N,10-dimethylphenazin-10-ium-2-amine perchlorate], the “dose dependency in re-screening (reduction of superoxide, DHE)” value is “identified by dose dependency; also recorded: exhibited dose dependency”.
On the same count and under the same terms, with `Nc1cc2nc3ccccc3nc2cc1N` [MLS001044416, phenazine-2,3-diamine] the entry was “identified by dose dependency; also recorded: exhibited dose dependency”; with `O=c1cccc2[nH]c3ccccc3nc1-2` [MLS000737174, 5H-phenazin-1-one], “identified by dose dependency; also recorded: exhibited dose dependency”; with `C=C1[C@@H](O)[C@@H]2O[C@]3(CC[C@H](/C=C/[C@@H](C)[C@@H]4CC(C)=C[C@@]5(O[C@H](C[C@@](C)(O)C(=O)O)CC[C@H]5O)O4)O3)CC[C@H]2O[C@@H]1[C@@H](O)C[C@H](C)[C@H]1O[C@@]2(CCCCO2)CC[C@H]1C` [MLS002320508, (2R)-3-[(4S,10S)-4-[(E)-4-[(2S,2′R,4aS,6R,8aR)-4-hydroxy-2-[1-hydroxy-3-[(10S)-9-methyl-5,11-dioxaspiro[5.5]undecan-10-yl]butyl]-3-methylidenespiro[4a,7,8,8a-tetrahydro-4H-pyran[3,2-b]pyran-6,5′-oxolane]-2′-yl]but-3-en-2-yl]-7-hydroxy-2-methyl-5,11-dioxaspiro[5.5]undec-1-en-10-yl]-2-hydroxy-2-methylpropanoic acid], “identified by dose dependency; also recorded: exhibited dose dependency”.
Still for that read-out and setting: then `C[C@]12CCC3C(CC[C@H]4C[C@H](O)CC[C@]34C)C1CCC2=O` (stereo partly drawn) [MLS002554454, (3R,5S,10S,13S)-3-hydroxy-10,13-dimethyl-1,2,3,4,5,6,7,8,9,11,12,14,15,16-tetradecahydrocyclopenta[a]phenanthren-17-one], with “identified by dose dependency; also recorded: exhibited dose dependency”.
For the molecule `Nc1nc[nH]n1` [3-aminotriazol, reference compound], the “decrease in superoxide signals (control compound)” value is “more robust and reproducible decrease in superoxide signals”.
Consider `CC(C)(C)n1nc(-c2ccc(Cl)cc2)c2c(N)ncnc21` [MLS000326622, 1-tert-butyl-3-(4-chlorophenyl)pyrazolo[3,4-d]pyrimidin-4-amine], for which the “dose dependency in re-screening (reduction of superoxide, DHE)” value is on record as “identified by dose dependency; also recorded: exhibited dose dependency”.

Staying with this assay, now noted: dose response assays from 0.004 uM to 30 uM; 7 day incubation, 7% glucose.
For `COc1ccc2nc3ccccc3nc2c1` [MLS000768124, 2-methoxyphenazine], the “dose dependency in re-screening (reduction of superoxide, DHE)” value is “identified by dose dependency; also recorded: exhibited dose dependency”.
In the case of `COc1ccc2c(c1)c1nnc(SC)nc1n2C` [MLS000033501, 8-methoxy-5-methyl-3-methylsulfanyl-[1,2,4]triazino[5,6-b]indole], the “dose dependency in re-screening (reduction of superoxide, DHE)” value is given as “identified by dose dependency; also recorded: exhibited dose dependency”.
Regarding `O=C(c1cccc2nc3ccccc3nc12)N1CCOCC1` [MLS001044337, morpholin-4-yl(phenazin-1-yl)methanone], the “dose dependency in re-screening (reduction of superoxide, DHE)” value is reported as “identified by dose dependency; also recorded: exhibited dose dependency”.
On to `O=C(Nc1ccc2nc3ccccc3nc2c1)c1ccccc1` [MLS000418506, N-phenazin-2-ylbenzamide], for which the “dose dependency in re-screening (reduction of superoxide, DHE)” value is given as “identified by dose dependency; also recorded: exhibited dose dependency”.
For `CCC(Nc1ccccc1O)=C1C(=O)CC(c2ccccc2)CC1=O` (stereo not shown) [MLS000779260, 2-[1-(2-hydroxyanilino)propylidene]-5-phenylcyclohexane-1,3-dione], the “dose dependency in re-screening (reduction of superoxide, DHE)” value is on record as “identified by dose dependency; also recorded: exhibited dose dependency”.
As to `COc1ccc2nc3ccccc3nc2c1N` [MLS001044341, 2-methoxyphenazin-1-amine], the “dose dependency in re-screening (reduction of superoxide, DHE)” value was “identified by dose dependency; also recorded: exhibited dose dependency”.
On the same count and under the same terms, then `c1ccc2nc3ccccc3nc2c1` [MLS000584128, phenazine], with “identified by dose dependency; also recorded: exhibited dose dependency”; and `CC(C)(C)Nc1ncnc2c1cnn2-c1ccccc1` [MLS000100785, N-tert-butyl-1-phenylpyrazolo[3,4-d]pyrimidin-4-amine], with “identified by dose dependency; also recorded: exhibited dose dependency”.
Take `COc1ccc2nc3ccccc3[n+]([O-])c2c1` [MLS002638803, 2-methoxy-10-oxidophenazin-10-ium]: the “dose dependency in re-screening (reduction of superoxide, DHE)” value is “identified by dose dependency; also recorded: exhibited dose dependency”.
As for `O=C(/C=C/c1ccccc1)NC(=S)NNC(=O)Cc1cccs1` [MLS000121367, (E)-3-phenyl-N—[[(2-thiophen-2-ylacetyl)amino]carbamothioyl]prop-2-enamide], the “dose dependency in re-screening (reduction of superoxide, DHE)” value is “identified by dose dependency; also recorded: exhibited dose dependency”.
Same read-out and setting: with `CCN(CC)C(=O)c1ccc2nc3ccccc3nc2c1` [MLS000595212, N,N-diethylphenazine-2-carboxamide] the entry was “identified by dose dependency; also recorded: exhibited dose dependency”; with `CSc1nnc(-c2ccc([N+](=O)[O-])cc2)o1` [MLS000855890, 2-methylsulfanyl-5-(4-nitrophenyl)-1,3,4-oxadiazole], “identified by dose dependency; also recorded: exhibited dose dependency”; with `O=c1ccc2[n+]([O-])c3ccccc3n(O)c-2c1` [MLS001208198, 10-hydroxy-5-oxidophenazin-5-ium-2-one], “identified by dose dependency; also recorded: exhibited dose dependency”.
The same measure, in the same setting: then `OCC[n+]1c2ccccc2nc2ccc(N3CCOCC3)cc21` [MLS000768911, 2-(3-morpholin-4-ylphenazin-5-ium-5-yl)ethanolperchlorate], with “identified by dose dependency; also recorded: exhibited dose dependency”.
On the same count and under the same terms, then `CNC(=O)c1cccc2nc3ccccc3nc12` [MLS001044346, N-methylphenazine-1-carboxamide], with “identified by dose dependency; also recorded: exhibited dose dependency”; and `COC(=O)c1cccc2nc3c(C(C)O)cccc3nc12` (stereo not shown) [MLS000863638, methyl 6-(1-hydroxyethyl)phenazine-1-carboxylate], with “identified by dose dependency; also recorded: exhibited dose dependency”; and `COc1cccc2nc3cc(C)c(C)cc3nc12` [MLS000756830, 1-methoxy-7,8-dimethylphenazine], with “identified by dose dependency; also recorded: exhibited dose dependency”.
For `C[C@]12CCC3C(CC[C@H]4C[C@H](O)CC[C@]34C)C1C[C@@H](CCCCl)[C@@H]2O` (stereo partly drawn) [MLS002554453, (3R,5S,10S,13S,16R,17S)-16-(3-chloropropyl)-10,13-dimethyl-2,3,4,5,6,7,8,9,11,12,14,15,16,17-tetradecahydro-1H-cyclopenta[a]phenanthrene-3,17-diol], the “dose dependency in re-screening (reduction of superoxide, DHE)” value is listed as “identified by dose dependency; also recorded: exhibited dose dependency”.
